According to patent publication US20250084177A1, “ANTI-CD98 ANTIBODIES AND USES THEREOF” (HUAHUI HEALTH LTD., priority 2021, published 2025):

Target: T1, LAT1/CD98 heterodimer HAT complex (Homo sapiens, UniProt P08195+Q01650)
T1 construct: in the tumor cell lines earlier found to be highly sensitive to S1-F4 treatment; endogenous in cells
Experiment: Amino acid (HPG) uptake assay
Assay type: cell-based
Settings: HepG2 and Raji cells; antibody 15 μg/ml, BCH 10 mM
Procedure: Cells were incubated with 15 μg/ml antibody for 24 hr in growth medium. Then they were equilibrated for 30 min at 37° C. with Met-free DMEM. HPG (Thermo Fisher Scientific) was added to the cells at a final concentration of 70 μM. […] After 2-3 hr, cells were washed with PBS and lysed with lysis buffer (1% SDS in 50 mM Tris-HCL, pH 8.0) with complete protease inhibitors (Roche). HPG in cell lysis was biotinylated according to manufacturer instructions (Thermo Fisher Scientific). Then cell lysis was transferred into 96 well plate (Nunc, MaxiSorp™) and incubated at 4° C. overnight. The amount of HGP in cell lysates was then detected by streptavidin-HRP (Thermo Fisher Scientific) in an ELISA-based assay.
Amino acid uptake assay was conducted to analyze the effect of S1-F4 in amino acid transport. L-Homopropargylglycine (HPG), a methionine mimic, was used as a traceable substrate for the LAT1 (L-type/large neutral amino acid transporter 1)/CD98 heterodimer HAT complex, and the LAT1/CD98 complex inhibitor BCH (2-amino-2-norbornane-carboxylic acid) was used as a positive control for disrupting transport function.

T1 sequence (P08195 103-630 limits assumed): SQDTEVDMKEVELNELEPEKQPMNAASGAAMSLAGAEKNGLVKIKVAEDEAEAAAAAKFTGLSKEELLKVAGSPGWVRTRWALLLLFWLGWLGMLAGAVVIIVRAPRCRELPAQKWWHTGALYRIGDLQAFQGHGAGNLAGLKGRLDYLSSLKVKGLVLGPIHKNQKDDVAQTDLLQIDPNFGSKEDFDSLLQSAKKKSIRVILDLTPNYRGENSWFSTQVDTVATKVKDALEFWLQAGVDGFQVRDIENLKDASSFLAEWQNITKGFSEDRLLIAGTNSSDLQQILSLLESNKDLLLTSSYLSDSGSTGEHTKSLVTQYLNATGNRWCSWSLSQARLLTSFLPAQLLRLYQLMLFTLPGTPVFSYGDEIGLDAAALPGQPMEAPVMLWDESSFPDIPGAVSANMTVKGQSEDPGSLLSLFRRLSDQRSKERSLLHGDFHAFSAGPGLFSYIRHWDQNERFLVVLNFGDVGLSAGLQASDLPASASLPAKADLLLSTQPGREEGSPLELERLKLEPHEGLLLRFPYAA
T1 sequence (Q01650 whole entry): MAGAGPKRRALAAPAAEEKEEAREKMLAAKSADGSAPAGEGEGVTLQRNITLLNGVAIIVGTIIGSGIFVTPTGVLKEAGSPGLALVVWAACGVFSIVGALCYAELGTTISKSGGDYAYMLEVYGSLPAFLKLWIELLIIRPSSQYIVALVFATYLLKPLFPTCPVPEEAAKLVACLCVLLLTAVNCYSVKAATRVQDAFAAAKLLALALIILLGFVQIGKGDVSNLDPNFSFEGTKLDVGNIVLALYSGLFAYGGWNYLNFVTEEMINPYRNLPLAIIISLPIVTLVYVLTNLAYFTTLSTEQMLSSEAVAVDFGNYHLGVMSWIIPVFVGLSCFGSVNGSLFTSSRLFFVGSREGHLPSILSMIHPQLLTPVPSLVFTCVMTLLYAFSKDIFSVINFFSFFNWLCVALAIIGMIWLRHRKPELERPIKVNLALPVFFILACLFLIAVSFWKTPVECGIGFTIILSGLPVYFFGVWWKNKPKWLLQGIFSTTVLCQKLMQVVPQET

NC1(C(=O)O)CC2CCC1C2 (stereo not shown) [BCH, 2-amino-2-norbornane-carboxylic acid]
HPG uptake / HAT complex transport activity: impaired HAT complex transport activity
